Holding throughout (format): cell-based, human
Experiment [1] has as its system CXCR4 mRNA. Kind of experiment: Northern blot analysis of steady state CXCR4 mRNA levels in HUVEC treated with mediators. The note with it: for CXCR4 mRNA levels (normalized against GAPDH): HUVEC, after 24 hours of treatment. The procedure: Total RNA (10 μg/lane) was fractionated on 1% agarose-formaldehyde gels, transferred to a nylon membrane (Amersham Corp., Piscataway, N.J.) and covalently linked with a UV crosslinker (Stratagene Inc., La Jolla, Calif.). For Northern analysis, 515-base pair size cDNA probes of CXCR1, CXCR2, CXCR3, CXCR4, CCR1, CCR2 and CCR3, were used. The GAPDH gene probe (Clontech, Palo Alto, Calif.) was used to normalize RNA sample differences in each lane. The probes were labeled with [a-^32P] dCTP using a random-prime labeling kit (Promega Corp., Madison, Wis.), and hybridized overnight at 42° C. in 6X SSC buffer (1X SSC=150 mM NaCL, 15 mM Na Citrate), .1% sodium dodecyl sulfate, 5X Denhardt's solution, 50% formamide, and 100 μg/ml denatured salmon sperm DNA. Membranes were washed with a final stringency of 0.2X SSC at 60° C., and analyzed with a phosphorimager (Molecular Dynamics, Inc., Sunnyvale, Calif.) after exposure at room temperature for 3-5 days. Densitometry was used for quantitative analysis.
CXCR4 transcripts are well expressed in many non-hematopoietic vascular tissues like heart, brain, lung and colon. Federsppiel, et al. Genomics 16: 707-712 (1993). However, at the cellular level, this expression was selective for EC, as indicated by the failure of total RNA from human pulmonary artery smooth muscle cells (HPASMC) to hybridize with the CXCR4 cDNA probe. To understand the regulation of CXCR4 in EC during inflammation, we treated the HUVEC with various mediators and measured its steady state mRNA levels after normalization against the GAPDH cDNA probe.
In order to understand the kinetics of inflammation mediated transcriptional regulation of CXCR4, actinomycin D was used to determine the half-life of CXCR4 mRNA. […] Many cytokines and cytokine receptors, including CXCR4, have A-U rich elements in their untranslated regions that serve as targeting motifs for transcript degradation by specific RNAses. Shaw, et al., Cell 46: 659-667 (1986). In addition to its action as a transcriptional inhibitor, actinomycin D also has the unique and immediate effect of imparting stability to existing transcripts of mRNA undergoing rapid turnover.

Experiment [2] relates to HUVEC. As to the kind of experiment: Measurement of intracellular calcium [Ca2+]i in EC (fura-2). The note with it: for elevation of [Ca+2]i (mobilization of intracellular Ca2+): HUVEC / EC. The procedure:
For measurements of intracellular calcium [Ca^2+]i, EC were loaded with 2 μM fura-2/AM (Molecular Probes, Eugene, OR), rinsed with 1 mM EDTA in Dulbecco's PBS, and resuspended into Kreb's Ringer's Henseleit (KRH) buffer, pH 7.4, containing 0.1% gelatin. Cells (1x 10^6/ml) were stored on ice and diluted for use 1:1 with fresh KRH buffer at 37° C. Fluorescence of fura-2 in cells was measured with a University of Pennsylvania Biomedical Instruments Group dual channel fluorometer. Data was captured as voltage recordings with the aid of a PC and analyzed by Igor version 1.28 software (WaveMetrics, Lake Oswego, Oreg.). Chemokines were added from concentrated stocks in water. To establish the integrity of EC, we also measured [Ca^2+]i stimulated by thrombin.
To determine whether the human EC express a functional CXCR4 receptor, our subsequent studies used SDF-1α along with several other chemokines to assess their ability to induce changes in intracellular levels of Ca^+2 and cause migration. […] In contrast, other chemokines like γ-IP10, IL-8, PF-4, MIP-1α, MCP-1, eotaxin and RANTES had no effect on EC.
On the technique in general: A change in cytosolic calcium serves as a functional read-out for many receptors and channels.

Experiment [3] has as its system HUVEC. As to the kind of experiment: HUVEC migration (chemotaxis) assay, Transwell. As to conditions: for effect on EC chemotaxis: HUVEC. The procedure:
HUVEC migration assay was performed using 5×10^5 cells/well (in CS-C medium) in the top chamber of a 6.5 mm diameter, 8-μM pore polycarbonate Transwell culture insert (Costar, Cambridge, Mass.) as reported previously (36). Incubation was carried out at 37° C. in 5% CO2 for 20 hrs. After incubation, migrated cells in the lower chamber were counted with a ZM Coulter counter (Coulter Diagnostics, Hialeah, Fla.). Percent migration was calculated based on the total initial input cells per well.
The Applicant next studied the chemotactic response of EC to SDF-1α. SDF-1α induced a pronounced migration of ˜40% of input EC in a concentration-related manner with an EC50 of 10-20 nM. It is intriguing to observe the high percentage of EC that migrated in response to SDF-1α, even though EC have limited migratory capability in comparison with neutrophils and monocytes. In contrast with other EC chemo-attractants like vitronectin, the chemotactic response to SDF-1α was kinetically robust, and a majority of the migrated cells entered the lower chamber without adhering to the Transwell filter. In these experiments, other chemokines like γ-IP10, IL-8, MIP-1α, MCP-1, eotaxin and RANTES had no effect on EC chemotaxis. Taken together, these observations have obvious biological significance, in that they indicate that SDF-1α plays a role in re-endothelialization after injury, an event that requires the directed migration of EC.

The term EC50 denotes the concentration that produces a half-maximal response. A lower EC50 goes with an effect from little substance.

Entries after “also recorded” stand apart in the source; their conditions may differ. *1 amine or outer side, *2 acyl side, *3 side chain or, on linkers, in order; H or OH if unused. Where a SMILES comes first, the peptide text is derived from it. Bridges are numbered along the chain shown (N, C = ends). Roman numbers before positions name the chains, in order. [ ]: non-standard residue; d: D form. Actinocin(9to1) = Cc1c2oc3c(C)ccc(C(=O)[*:1])c3nc-2c(C(=O)[*:2])c(N)c1=O; NMeV = CN[C@H](C(=O)O)C(C)C; Sar = CNCC(=O)O

Consider TGF-β, for which the “CXCR4 mRNA levels (normalized against GAPDH)” value in experiment [1] is given as “no effect”. The same measure, in the same setting: as for TNF-α, the entry is “to a lesser extent, TNF-α, caused a decrease”. With “SDF-1α: stromal cell derived factor-1α, polypeptide of SEQ ID NO:4, CXC chemokine ligand of CXCR4; obtained from Gryphon Sciences”, the “concentration of maximal [Ca+2]i response” value in experiment [2] (HUVEC) came out at 100 nM. The “elevation of [Ca+2]i (mobilization of intracellular Ca2+)” value (from here on “elevation of [Ca+2]i”) in experiment [2] is “rapid, though variable elevation; also recorded: induced a rapid mobilization”. Moreover, the “migration, percent of input EC” value in experiment [3] (20 hrs incubation, Transwell) is recorded as approximately 40%. For the same molecule, in experiment [3] (concentration-related migration of EC), the half-maximal effective concentration (EC50) was 10 to 20 nM.

Consider MCP-1: chemokine from R&D Systems, for which the “elevation of [Ca+2]i” value in experiment [2] is on record as “no effect”. In addition, the “effect on EC chemotaxis” value in experiment [3] is recorded as “no effect”.

On to `Cc1c2oc3c(C)ccc(C(=O)N[C@@H]4C(=O)N[C@H](C(C)C)C(=O)N5CCC[C@H]5C(=O)N(C)CC(=O)N(C)[C@@H](C(C)C)C(=O)O[C@@H]4C)c3nc-2c(C(=O)N[C@@H]2C(=O)N[C@H](C(C)C)C(=O)N3CCC[C@H]3C(=O)N(C)CC(=O)N(C)[C@@H](C(C)C)C(=O)O[C@@H]2C)c(N)c1=O` [actinomycin D] (I: T[dV]P[Sar][NMeV] / II: T[dV]P[Sar][NMeV]; ester I:1-I:C, II:1-II:C; linker I:N-II:N via Actinocin(9to1)), for which the “steady state levels of CXCR4 mRNA after short term exposure” value in experiment [1] (EC cultures, exposure of only 15-30 minutes) was “sharply increasing”. Also, the “CXCR4 mRNA levels (normalized against GAPDH)” value in experiment [1] is “almost complete abrogation”. “IL-1β: recombinant human IL-1β purchased from Genzyme”: the “CXCR4 mRNA levels (normalized against GAPDH)” value in experiment [1] was “significant induction”.

Turning to γ-IP10: chemokine from R&D Systems, the “elevation of [Ca+2]i” value in experiment [2] is given as “no effect”. Also, the “effect on EC chemotaxis” value in experiment [3] is reported as “no effect”. Besides, the “CXCR4 mRNA levels (normalized against GAPDH)” value in experiment [1] is on record as “no effect”. Take eotaxin: chemokine from R&D Systems: the “elevation of [Ca+2]i” value in experiment [2] was “no effect”. In addition, the “effect on EC chemotaxis” value in experiment [3] is given as “no effect”. IL-8: chemokine from R&D Systems: the “elevation of [Ca+2]i” value in experiment [2] is recorded as “no effect”. Moreover, the “effect on EC chemotaxis” value in experiment [3] is given as “no effect”.

As for “IFN-γ: recombinant human IFN-γ purchased from Genzyme”, in experiment [1], the “CXCR4 mRNA levels (normalized against GAPDH)” value is recorded as “decrease”.

B1: PF-4: chemokine from R&D Systems (protein, UniProt P02776 32-101, looked up)
Platelet factor 4: EAEEDGDLQCLCVKTTSQVRPRHITSLEVIKAGPHCPTAQLIATLKNGRKICLDLQAPLYKKIIKKLLES
As for B1, in experiment [2], the “elevation of [Ca+2]i” value is “no effect”.

B2: MIP-1α: chemokine from R&D Systems (protein, UniProt P10147 24-92, looked up)
C-C motif chemokine 3: SLAADTPTACCFSYTSRQIPQNFIADYFETSSQCSKPGVIFLTKRSRQVCADPSEEWVQKYVSDLELSA
With B2, in experiment [2], the “elevation of [Ca+2]i” value is “no effect”. Also, the “effect on EC chemotaxis” value in experiment [3] is listed as “no effect”.

B3: RANTES: chemokine from R&D Systems (protein, UniProt P13501 24-91, looked up)
C-C motif chemokine 5: SPYSSDTTPCCFAYIARPLPRAHIKEYFYTSGKCSNPAVVFVTRKNRQVCANPEKKWVREYINSLEMS
For B3, in experiment [2], the “elevation of [Ca+2]i” value is “no effect”. The “effect on EC chemotaxis” value in experiment [3] is “no effect”.

Values taken from US20020107195A1, “Method for inducing chemotaxis in endothelial cells by administering stromal cell derived factor-1alpha” (SmithKline Beecham Corporation, priority 1998, published 2002).
